The record followed here is US20250136578A1 (Kolm Therapeutics Inc., priority 2023, published 2025).

AR / CBP ternary complex, sequence (P10275 whole entry): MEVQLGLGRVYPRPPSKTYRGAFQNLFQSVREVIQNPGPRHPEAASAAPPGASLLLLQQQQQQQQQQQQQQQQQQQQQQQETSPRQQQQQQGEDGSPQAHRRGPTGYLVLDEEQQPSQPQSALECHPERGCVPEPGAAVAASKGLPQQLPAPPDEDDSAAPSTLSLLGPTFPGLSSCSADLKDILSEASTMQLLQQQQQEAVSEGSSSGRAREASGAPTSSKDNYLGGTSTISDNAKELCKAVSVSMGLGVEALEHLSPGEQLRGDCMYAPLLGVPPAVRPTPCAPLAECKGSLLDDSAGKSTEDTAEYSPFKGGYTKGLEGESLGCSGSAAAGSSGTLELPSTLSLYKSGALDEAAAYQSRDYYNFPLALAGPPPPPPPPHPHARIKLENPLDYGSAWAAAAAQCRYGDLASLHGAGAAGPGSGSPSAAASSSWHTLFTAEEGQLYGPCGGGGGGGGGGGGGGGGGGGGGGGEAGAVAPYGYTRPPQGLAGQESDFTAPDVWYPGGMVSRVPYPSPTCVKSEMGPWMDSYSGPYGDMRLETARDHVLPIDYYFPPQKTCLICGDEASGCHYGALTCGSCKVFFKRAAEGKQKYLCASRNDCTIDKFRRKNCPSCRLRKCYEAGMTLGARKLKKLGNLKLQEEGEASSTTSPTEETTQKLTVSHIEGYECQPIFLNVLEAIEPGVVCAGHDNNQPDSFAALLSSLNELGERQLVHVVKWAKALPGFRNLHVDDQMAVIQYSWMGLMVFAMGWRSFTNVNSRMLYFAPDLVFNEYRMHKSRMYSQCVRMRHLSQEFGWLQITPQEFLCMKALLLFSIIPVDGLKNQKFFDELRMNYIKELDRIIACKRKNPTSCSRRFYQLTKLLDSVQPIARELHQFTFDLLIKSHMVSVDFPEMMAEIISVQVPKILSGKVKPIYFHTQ
AR / CBP ternary complex, sequence (Q92793 2-2442): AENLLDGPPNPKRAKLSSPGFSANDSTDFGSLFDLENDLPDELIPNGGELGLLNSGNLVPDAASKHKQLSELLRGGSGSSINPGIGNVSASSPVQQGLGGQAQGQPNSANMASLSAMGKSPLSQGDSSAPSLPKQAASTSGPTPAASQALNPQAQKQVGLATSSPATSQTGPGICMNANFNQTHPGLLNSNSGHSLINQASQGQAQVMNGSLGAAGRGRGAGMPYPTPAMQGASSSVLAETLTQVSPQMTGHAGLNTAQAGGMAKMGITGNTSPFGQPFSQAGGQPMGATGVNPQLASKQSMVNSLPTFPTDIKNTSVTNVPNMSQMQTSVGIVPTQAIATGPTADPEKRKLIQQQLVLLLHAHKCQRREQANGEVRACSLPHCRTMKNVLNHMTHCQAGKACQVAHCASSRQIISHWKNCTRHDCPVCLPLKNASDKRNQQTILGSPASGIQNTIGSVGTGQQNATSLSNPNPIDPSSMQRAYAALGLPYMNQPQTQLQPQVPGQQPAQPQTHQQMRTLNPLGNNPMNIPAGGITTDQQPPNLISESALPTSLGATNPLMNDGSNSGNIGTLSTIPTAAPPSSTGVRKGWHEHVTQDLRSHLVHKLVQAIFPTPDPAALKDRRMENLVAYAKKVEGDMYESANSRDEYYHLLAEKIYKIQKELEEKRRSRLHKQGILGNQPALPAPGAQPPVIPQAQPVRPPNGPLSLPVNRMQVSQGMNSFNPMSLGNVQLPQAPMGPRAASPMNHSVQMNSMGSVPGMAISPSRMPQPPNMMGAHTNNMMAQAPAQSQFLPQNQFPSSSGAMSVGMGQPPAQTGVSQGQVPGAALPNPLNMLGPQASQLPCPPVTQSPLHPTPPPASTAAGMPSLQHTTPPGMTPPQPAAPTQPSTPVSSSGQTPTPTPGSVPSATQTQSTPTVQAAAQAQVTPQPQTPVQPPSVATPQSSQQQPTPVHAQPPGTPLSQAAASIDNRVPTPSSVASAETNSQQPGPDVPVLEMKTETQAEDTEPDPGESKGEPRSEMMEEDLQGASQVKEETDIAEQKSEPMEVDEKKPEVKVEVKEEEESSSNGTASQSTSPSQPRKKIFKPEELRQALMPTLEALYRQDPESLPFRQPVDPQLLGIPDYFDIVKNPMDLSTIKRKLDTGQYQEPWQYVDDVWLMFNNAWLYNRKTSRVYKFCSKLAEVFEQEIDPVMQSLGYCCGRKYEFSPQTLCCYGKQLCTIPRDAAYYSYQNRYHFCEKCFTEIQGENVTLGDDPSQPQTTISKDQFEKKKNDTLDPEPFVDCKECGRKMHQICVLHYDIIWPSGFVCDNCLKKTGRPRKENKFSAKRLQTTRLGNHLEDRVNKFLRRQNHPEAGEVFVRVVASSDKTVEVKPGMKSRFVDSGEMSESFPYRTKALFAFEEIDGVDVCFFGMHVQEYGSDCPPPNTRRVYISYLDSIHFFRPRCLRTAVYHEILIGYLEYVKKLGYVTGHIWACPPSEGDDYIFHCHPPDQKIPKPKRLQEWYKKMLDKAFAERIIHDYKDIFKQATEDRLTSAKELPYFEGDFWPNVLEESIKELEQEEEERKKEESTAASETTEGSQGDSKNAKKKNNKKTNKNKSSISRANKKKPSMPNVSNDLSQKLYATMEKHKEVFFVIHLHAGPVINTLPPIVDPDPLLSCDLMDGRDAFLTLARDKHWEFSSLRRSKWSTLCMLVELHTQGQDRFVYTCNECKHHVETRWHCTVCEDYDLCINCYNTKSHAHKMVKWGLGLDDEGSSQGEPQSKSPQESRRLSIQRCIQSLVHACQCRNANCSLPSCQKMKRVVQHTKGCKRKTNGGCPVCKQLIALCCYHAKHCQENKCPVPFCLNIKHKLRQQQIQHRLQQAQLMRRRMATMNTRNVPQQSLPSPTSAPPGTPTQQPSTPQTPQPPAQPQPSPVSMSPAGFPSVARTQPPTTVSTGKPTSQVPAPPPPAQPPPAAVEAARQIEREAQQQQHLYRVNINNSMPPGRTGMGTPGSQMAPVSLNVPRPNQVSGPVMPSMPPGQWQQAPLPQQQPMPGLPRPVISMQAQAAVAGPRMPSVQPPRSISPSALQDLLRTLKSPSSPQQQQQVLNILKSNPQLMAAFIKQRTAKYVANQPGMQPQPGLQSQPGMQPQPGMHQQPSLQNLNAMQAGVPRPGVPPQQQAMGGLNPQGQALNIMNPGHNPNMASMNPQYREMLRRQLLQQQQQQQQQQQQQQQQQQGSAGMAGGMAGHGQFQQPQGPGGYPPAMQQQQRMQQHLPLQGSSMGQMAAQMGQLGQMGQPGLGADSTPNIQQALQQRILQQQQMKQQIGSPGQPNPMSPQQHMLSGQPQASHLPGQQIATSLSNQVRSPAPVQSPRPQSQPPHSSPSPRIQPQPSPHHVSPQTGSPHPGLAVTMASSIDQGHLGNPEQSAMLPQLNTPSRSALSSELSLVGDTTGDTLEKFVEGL

The assay concerns the target AR / CBP ternary complex (Homo sapiens, UniProt P10275+Q92793). Put plainly: Ternary complex formation assay (sandwich ELISA, AR capture, CBP antibody detection) in VCaP cell lysates. In kind it is cell-based. Conditions: treated 1.5 hours, rabbit CBP or p300 antibody detection, average, read-out: Average Ternary Complex. On the procedure:
Black MaxiSorp plates: coat with 50 μL of mouse 1/50 diluted AR antibody (Monoclonal Antibody (AR 441 from Thermo Fisher); diluted in phosphate buffered saline (PBS). Spin the liquid to the bottom of the wells, if necessary. Incubate overnight at 4° C. Next day, wash 3 times with 200 μL of TBST. Block with 200 μL of blocking buffer (5% BSA in TBST) at room temperature for 2 hours (BSA: A4503 or A2153 from Sigma). Wash plates 3 times with TBST. Plates are ready for lysates Preparation of dimerizer treated lysates
Culture cells in 96 wells at 50K VCaP cells/well for at least 3 days. Plate in 5% Omega charcoal stripped FBS in total volume of 200 uL. Treat with bifunctional for 1.5 hours by adding 1 μL of 200× stock in DMSO. Aspirate media/compound. Add and pipet-to-mix 70 μL of 1× AlphaLisa Lysis Buffer to each well (Perkin Elmer, AlphaLISA SureFire Ultra, diluted in water). Pipet up and down when adding lysis buffer to disrupt cells. Let lysis proceed for 30 min at 4° C.
Incubate for 1 hour at room temperature. Flick out the lysates. Wash 3 times with TBST. Add 75 μL of rabbit CBP or p300 antibody to each well (diluted 1:5000 in blocking buffer (5% BSA in TBST). CBP antibody: (D6C5) Rabbit mAb #7389; p300 antibody: (D8Z4E) Rabbit mAb #86377. Incubate overnight at 4° C. Wash 3 times with 300 uL TBST, each time on shaker for 5-10 min. Prepare goat anti-rabbit antibody conjugated to HRP (1/100K dilution in blocking buffer) Invitrogen Catalog number: 32260. Add 75 μL of HRP-conjugated goat anti-rabbit antibody. Incubate at room temperature for 1 hour. Flick out the HRP-antibody mixture. Wash 7-8 times with TBST, each time on shaker for 10 min. Later washes try to overflow the wells so that no residual HRP remains bound to the sides of the well. Prepare and add 75 uL/well of QuantaRed Enhance Chemifluorescent HRP Substrate solution. Immediately read fluorescence on BMG ClarioStar (ex: 570/em 585), and repeat the read in 5 minutes and 15 minutes.
(An ELISA detects its analyte on a solid surface through an enzyme-linked reagent.)
Turning to `CC(=O)N1CCc2c(c(N3CCCc4cc(-c5cnn(C)c5)c(C(F)F)cc43)nn2C2CCN(CC3C(C)CN(c4ccc(C(=O)N[C@H]5CC[C@H](Oc6ccc(C#N)c(C(F)(F)F)c6)CC5)nn4)CC3C)CC2)C1` (some centres unmarked) [Compound 290, 6-[4-[[4-[5-acetyl-3-[7-(difluoromethyl)-6-(1-methylpyrazol-4-yl)-3,4-dihydro-2H-quinolin-1-yl]-6,7-dihydro-4H-pyrazolo[4,3-c]pyridin-1-yl]-1-piperidyl]methyl]-3,5-dimethyl-1-piperidyl]-N-[4-[4-cyano-3-(trifluoromethyl)phenoxy]cyclohexyl]pyridazine-3-carboxamide], the EC50 is below 1 nM. With `CC(=O)N1CCc2c(c(-c3cccc4cc(-c5cnn(CCN6CCN(c7ccc(C(=O)N[C@H]8CC[C@H](Oc9ccc(C#N)c(Cl)c9)CC8)nn7)CC6)c5)ncc34)nn2C2CCOCC2)C1` [Compound 29, 6-[4-[2-[4-[8-(5-acetyl-1-tetrahydropyran-4-yl-6,7-dihydro-4H-pyrazolo[4,3-c]pyridin-3-yl)-3-isoquinolyl]pyrazol-1-yl]ethyl]piperazin-1-yl]-N-[4-(3-chloro-4-cyano-phenoxy)cyclohexyl]pyridazine-3-carboxamide], the EC50 was below 1 nM.

Take `CC(=O)N1CCc2c(c(N3CCCc4cc(-c5cnn(C)c5)c(C(F)F)cc43)nn2[C@H]2CCC3(CC2)C[C@H](Oc2ccc(C(=O)N[C@H]4CC[C@H](Oc5ccc(C#N)c(Cl)c5)CC4)nn2)C3)C1` (mixture of isomers) [Compound 235, 6-((7-(5-acetyl-3-(7-(difluoromethyl)-6-(1-methyl-1H-pyrazol-4-yl)-3,4-dihydroquinolin-1(2H)-yl)-4,5,6,7-tetrahydro-1H-pyrazolo[4,3-c]pyridin-1-yl)spiro[3.5]nonan-2-yl)oxy)-N-((1SR,4SR)-4-(3-chloro-4-cyanophenoxy)cyclohexyl)pyridazine-3-carboxamide]: the EC50 was below 1 nM. As for `CC(=O)N1CCc2c(c(N3CCCc4cc(-c5cnn(C)c5)c(C(F)F)cc43)nn2C2CCN(CC3(F)CCN(c4ccc(C(=O)N[C@H]5CC[C@H](Oc6ccc(C#N)c(Cl)c6)CC5)nn4)CC3)CC2)C1` [Compound 142, 6-[4-[[4-[5-acetyl-3-[7-(difluoromethyl)-6-(1-methylpyrazol-4-yl)-3,4-dihydro-2H-quinolin-1-yl]-6,7-dihydro-4H-pyrazolo[4,3-c]pyridin-1-yl]-1-piperidyl]methyl]-4-fluoro-1-piperidyl]-N-[4-(3-chloro-4-cyano-phenoxy)cyclohexyl]pyridazine-3-carboxamide], the figure is below 1 nM; as for `CC(=O)N1CCc2c(c(N3CCCc4cc(-c5cnn(C)c5)c(C(F)F)cc43)nn2C2CCN(CC3CCN(c4ncc(C(=O)N[C@H]5CC[C@H](Oc6ccc(C#N)c(Cl)c6)CC5)cn4)CC3)CC2)C1` [Compound 17, 2-[4-[[4-[5-acetyl-3-[7-(difluoromethyl)-6-(1-methylpyrazol-4-yl)-3,4-dihydro-2H-quinolin-1-yl]-6,7-dihydro-4H-pyrazolo[4,3-c]pyridin-1-yl]-1-piperidyl]methyl]-1-piperidyl]-N-[4-(3-chloro-4-cyano-phenoxy)cyclohexyl]pyrimidine-5-carboxamide], below 1 nM.

On to `CC(=O)N1CCc2c(c(N3CCCc4cc(-c5cnn(C)c5)c(C(F)F)cc43)nn2C2CCN(C3CC4(CCN(c5ccc(C(=O)N[C@H]6CC[C@H](Oc7ccc(C#N)c(Cl)c7)CC6)nn5)C4)C3)CC2)C1` (some centres unmarked) [Compound 228, 6-[2-[4-[5-acetyl-3-[7-(difluoromethyl)-6-(1-methylpyrazol-4-yl)-3,4-dihydro-2H-quinolin-1-yl]-6,7-dihydro-4H-pyrazolo[4,3-c]pyridin-1-yl]-1-piperidyl]-6-azaspiro [3.4]octan-6-yl]-N-[4-(3-chloro-4-cyano-phenoxy)cyclohexyl] pyridazine-3-carboxamide], for which the EC50 is below 1 nM. Consider `CC(=O)N1CCc2c(c(N3CCCc4cc(-c5cnn(C)c5)c(C(F)F)cc43)nn2C2CCN(C(=O)C3CCN(c4nnc(C(=O)N[C@H]5CC[C@H](Oc6ccc(C#N)c(Cl)c6)CC5)s4)CC3)CC2)C1` [Compound 226, 5-[4-[4-[5-acetyl-3-[7-(difluoromethyl)-6-(1-methylpyrazol-4-yl)-3,4-dihydro-2H-quinolin-1-yl]-6,7-dihydro-4H-pyrazolo[4,3-c]pyridin-1-yl]piperidine-1-carbonyl]-1-piperidyl]-N-[4-(3-chloro-4-cyano-phenoxy)cyclohexyl]-1,3,4-thiadiazole-2-carboxamide], for which the EC50 is below 1 nM.

For the compound `CC(=O)N1CCc2c(c(N3CCCc4cc(-c5cnn(C)c5)c(C(F)F)cc43)nn2[C@H]2CC[C@]3(CCN(c4ccc(C(=O)N[C@H]5CC[C@H](Oc6ccc(C#N)c(Cl)c6)CC5)nn4)C3)CC2)C1` [Compound 264, 6-[8-[5-acetyl-3-[7-(difluoromethyl)-6-(1-methylpyrazol-4-yl)-3,4-dihydro-2H-quinolin-1-yl]-6,7-dihydro-4H-pyrazolo[4,3-c]pyridin-1-yl]-2-azaspiro[4.5]decan-2-yl]-N-[4-(3-chloro-4-cyano-phenoxy)cyclohexyl]pyridazine-3-carboxamide], the EC50 is above 100 nM. As for `CC(=O)N1CCc2c(c(N3CCCc4cc(-c5cnn(C)c5)c(C(F)F)cc43)nn2[C@H]2CC[C@@]3(CCCN(C4CN(c5ccc(C(=O)N[C@H]6CC[C@H](Oc7ccc(C#N)c(Cl)c7)CC6)nn5)C4)C3)CC2)C1` [Compound 269, 6-[3-[9-[5-acetyl-3-[7-(difluoromethyl)-6-(1-methylpyrazol-4-yl)-3,4-dihydro-2H-quinolin-1-yl]-6,7-dihydro-4Hpyrazolo[4,3-c]pyridin-1-yl]-2-azaspiro[5.5]undecan-2-yl]azetidin-1-yl]-N-[4-(3-chloro-4-cyanophenoxy)cyclohexyl]pyridazine-3-carboxamide], the figure is below 1 nM; as for `CC(=O)N1CCc2c(c(N3CCCc4cc(-c5cnn(C)c5)c(C(F)F)cc43)nn2C2CCc3c(cnn3C3CCN(c4ccc(C(=O)N[C@H]5CC[C@H](Oc6ccc(C#N)c(Cl)c6)CC5)nn4)CC3)C2)C1` (some centres unmarked) [Compound 178, 6-[4-[5-[5-acetyl-3-[7-(difluoromethyl)-6-(1-methylpyrazol-4-yl)-3,4-dihydro-2H-quinolin-1-yl]-6,7-dihydro-4H-pyrazolo[4,3-c]pyridin-1-yl]-4,5,6,7-tetrahydroindazol-1-yl]-1-piperidyl]-N-[4-(3-chloro-4-cyano-phenoxy)cyclohexyl]pyridazine-3-carboxamide], below 1 nM; as for `COc1cc(O[C@H]2CC[C@H](NC(=O)c3ccc(N4CC5(CCC(N6CCC(n7nc(N8CCCc9cc(-c%10cnn(C)c%10)c(C)cc98)c8c7CCN(C(C)=O)C8)CC6)CC5)C4)nn3)CC2)ccc1C#N` [Compound 296, 6-[7-[4-[5-acetyl-3-[7-methyl-6-(1-methylpyrazol-4-yl)-3,4-dihydro-2H-quinolin-1-yl]-6,7-dihydro-4H-pyrazolo[4,3-c]pyridin-1-yl]-1-piperidyl]-2-azaspiro [3.5]nonan-2-yl]-N-[4-(4-cyano-3-methoxy-phenoxy)cyclohexyl] pyridazine-3-carboxamide], below 1 nM.

Regarding `CC(=O)N1CCc2c(c(N3CCCc4cc(-c5cnn(C)c5)c(C(F)F)cc43)nn2[C@H]2CCC3(CC2)C[C@H](Oc2ccc(C(=O)N[C@H]4CC[C@H](Oc5ccc(C#N)c(Cl)c5)CC4)nn2)C3)C1` (mixture of isomers) [Compound 301, 6-((7-(5-acetyl-3-(7-(difluoromethyl)-6-(1-methyl-1H-pyrazol-4-yl)-3,4-dihydroquinolin-1(2H)-yl)-4,5,6,7-tetrahydro-1H-pyrazolo[4,3-c]pyridin-1-yl)spiro[3.5]nonan-2-yl)oxy)-N-((1SR,4SR)-4-(3-chloro-4-cyanophenoxy)cyclohexyl)pyridazine-3-carboxamide], the EC50 was below 1 nM. Consider `CC(=O)N1CCc2c(c(N3CCCc4cc(-c5cnn(C)c5)c(C)cc43)nn2C2CCN(C3CCC4(CC3)CN(c3ccc(C(=O)N[C@H]5CC[C@H](Oc6ccc(C#N)c(C(F)(F)F)c6)CC5)nn3)C4)CC2)C1` [Compound 297], for which the EC50 was above 100 nM. For `CC(=O)N1CCc2c(c(N3CCCc4cc(-c5ccc(OC6CC7(CCN(c8ccc(C(=O)N[C@H]9CC[C@H](Oc%10ccc(C#N)c(Cl)c%10)CC9)nn8)CC7)C6)cc5)c(C(F)F)cc43)nn2C2CCOCC2)C1` [Compound 203, 6-[2-[4-[1-(5-acetyl-1-tetrahydropyran-4-yl-6,7-dihydro-4H-pyrazolo[4,3-c]pyridin-3-yl)-7-(difluoromethyl)-3,4-dihydro-2H-quinolin-6-yl]phenoxy]-7-azaspiro[3.5]nonan-7-yl]-N-[4-(3-chloro-4-cyano-phenoxy)cyclohexyl]pyridazine-3-carboxamide] the value was below 1 nM.
